Assay results: patent US5677305A, “Oxopyridinylquinoxaline derivative” (Shionogi & Co., Ltd., priority 1994, dated 1997)

How the values were obtained:
[1] = system: glycine binding site of the NMDA receptors; settings: in words; cited from earlier work
[2] = biological target: T1, glycine binding site of NMDA receptors (Rattus norvegicus, UniProt P35439); assay: competitive binding to a glycine binding site of NMDA receptors ([3H]glycine); parameters: species or system Slc-Wistar rat; settings: for IC50: [3H]glycine 100 nM, rat cerebral cortex membrane, 0° C., 10 minutes
T1 construct: the cerebral cortex of an Slc-Wistar rat (250 to 300 g in weight) was homogenized; from tissue; host or cells: cerebral cortex of Slc-Wistar rat, washed and Triton X-100 treated membranes
Experimental: The ability of the compounds of the present invention to bind to a glycine binding site of the NMDA receptors can be measured, for example, using competitive assay in vitro as described below.
(§1) A rat cerebral cortex is homogenized with a buffer solution, and repeatedly centrifuged and resuspended in a buffer to prepare a membrane sample. The membrane sample is mixed with a solution containing [^3 H] glycine and a compound of interest and incubated for a predetermined period of time. Then, the reaction of the mixture is terminated by dilution and filtration using filter paper. Radioactivity on the filter paper is measured by a liquid scintillation counter. Non-specific binding is measured with 1 mM of non-radioactive glycine to work out IC50.
Assay for competitive binding of 6-nitro-7-(4-oxo-4H-pyridin-1-yl)-1,4-dihydroquinoxaline-2,3-dione (Ia) to a glycine binding site of NMDA receptors.
First, the cerebral cortex of an Slc-Wistar rat (250 to 300 g in weight) was homogenized in 5 mM Tris acetic acid buffer in 20-fold volume (containing 1 mM EGTA, 0.1 mM PMSF, and 0.01% Bacitracin, pH 7.4). The cerebral cortex was centrifuged at 50,000×g for 30 minutes and resuspended in a buffer. This process was repeated four times. The final suspension was stored at -80° C. The frozen suspension was thawed at room temperature and incubated with 0.08% Triton X-100 solution at […] for 10 minutes. The resultant suspension was then washed twice and suspended in 50 mM Tris-acetate buffer (pH 7.4) to give a membrane sample. The membrane sample was mixed with 100 nM [^3 H]glycine and solutions in a series of concentrations of Compound Ia obtained in Example 1. The mixtures were incubated at 0° C. for 10 minutes. Each of the mixtures was diluted and filtered using Whatman GF/C filter paper so as to terminate the reaction, and radioactivity of ^3 H remaining on the filter paper was measured by a scintillation counter for liquid. […] IC50 value of Compound Ia was determined using YM900 (a compound of Example 15 described in WO92/07847) as a control in the same way as described above.

[3] = biological target: AMPA receptors; assay: competitive binding to AMPA receptors ([3H]AMPA); parameters: species or system Slc-Wistar rat; settings: [3H]AMPA 30 nM, rat cerebral cortex membrane, 100 mM KSCN, 0° C., 30 minutes
Experimental: The binding ability of the compounds of the present invention with respect to the AMPA receptors can be measured, for example, by the following competitive assay.
as §1, with “H] AMPA” for “H] glycine”, “non-radioactive glutamate” for “non-radioactive glycine”
Assay for competitive binding of 6-nitro-7-(4-oxo-4H-pyridin-1-yl)-1,4-dihydroquinoxaline-2,3-dione (Ia) to AMPA receptors.
First, the cerebral cortex of an Slc-Wistar rat (250 to 300 g in weight) was homogenized in 30 mM Tris acetic acid buffer in 10-fold volume (containing 2.5 mM CaCl2, pH 7.1). […] Each of the mixtures was diluted and filtered using Whatman GF/C filter paper so as to terminate the reaction, and radioactivity of ^3 H remaining on the filter paper was measured by a scintillation counter for liquid. […] IC50 value of Compound Ia was determined using YM900 as a control in the same way as described above.

Row | IC50 [2] | IC50 [3] | antagonistic effects as strong as that of YM900 (times) ([2]; Ia vs YM900, from Table 2) | SMILES | antagonistic effects on the glycine binding site of the NMDA receptors [1]
1 | – | – | – | N#Cc1cc2[nH]c(=O)c(=O)[nH]c2cc1[N+](=O)[O-] [CNQX, 6-cyano-7-nitroquinoxaline-2,3-dione] | exhibit antagonistic effects on the glycine binding site of the NMDA receptors
2 | 67 µM | 0.28 µM | – | O=c1[nH]c2cc(-n3ccnc3)c([N+](=O)[O-])cc2[nH]c1=O [YM900, 6-imidazolyl-7-nitroquinoxaline-2,3-(1H, 4H)-dione] | –
3 | – | – | – | O=c1[nH]c2cc([N+](=O)[O-])c([N+](=O)[O-])cc2[nH]c1=O [DNQX, 6,7-dinitroquinoxaline-2,3-dione] | exhibit antagonistic effects on the glycine binding site of the NMDA receptors
4 | 6.6 µM | 0.1 µM | approximately ten | O=c1ccn(-c2cc3[nH]c(=O)c(=O)[nH]c3cc2[N+](=O)[O-])cc1 [Ia, 6-nitro-7-(4-oxo-4H-pyridin-1-yl)-1,4-dihydroquinoxaline-2,3-dione] | –
